These results are taken from EP3074024B1, “ANTIMICROBIAL COMPOSITIONS FOR USE IN PRODUCTS FOR PETROLEUM EXTRACTION, PERSONAL CARE, WOUND CARE AND OTHER APPLICATIONS” (Agienic Inc., priority 2013, dated 2015).

For data set [1] the following is noted: room temperature; cited from earlier work.
Data set [2] has as its system Desulfovibrio vulgaris (ATCC 29579). The data set can be described thus: Activity against sulfate reducing bacteria (3-tube MPN). Type of data set: cell-based. The conditions noted are these: 10ppm; one hour of contact time; starting 2x10^7 mpn/ml; SRB2 media.
Method: D. vulgaris was cultured for 2 days prior to experiment in SRB 2 media (Intertek). From this culture, 2 ml of inoculum was added to 18 ml anaerobic phosphate buffered saline (PBS).
Each concentration was tested in duplicate. […] The sealed bottles were incubated at room temperature (23°C) without agitation.
An initial sample was taken from the positive control to establish a starting concentration of bacteria for the experiment. 0.5 ml samples were taken at 1 hour time point and diluted in 4.5 ml anaerobic Dey/Engely (D/E) neutralizing broth to neutralize the Cu bacteriocide. A 1:10 dilution series was made using anaerobic PBS. Bacterial numbers were quantified by a 3-tube most probable number (MPN) method. Three tubes of anaerobic modified Baar's media (10 ml each) per dilution were inoculated with 1 ml each from their respective diluted sample. These tubes were incubated at 37°C for 72 hours. Positive samples were evaluated based on the presence of iron sulfide (FeS), which forms a black precipitate as a byproduct of hydrogen sulfide produced by bacterial growth reacting with iron included in the modified Baar's media.
All test media (PBS, D/E and modified Baar's media) were pretreated with 100 µl Oxyrase oxygen scavengers (obtained from Oxyrase Inc, Mansfield, OH) to render the test media anaerobic. […]

For `[Cu][Br]` [CuBr, Copper bromide], the “Water solubility” value in data set [1] was 11 µg/mL.
With `[Cl][Cu][Cl]` [CuCl2, copper (II) chloride], the log10 reduction entry in data set [2] is given as “less than 3 log10”.
Take `O=CCCCC=O` [gluteraldehyde]: the log10 reduction result in data set [2] is given as “greater than 4.23 log10”.
